Key:
[1] = molecular target: T1, FMS kinase (Homo sapiens, UniProt P07333); test: LanthaScreen Eu Kinase Binding Assay (ATP, fluorescent-PolyGT substrate); type: biochemical
T1 construct: purchased Invitrogen (Life Technologies)
Method: IC50 values of compounds against FMS kinase were determined by LanthaScreen™ Eu Kinase Binding Assay at Invitrogen (Life Technologies Grand Island, N.Y.) where total reaction volume was 10 μL in low-volume 384-well plates (#4511, Corning). Serially diluted compounds (3-fold) were incubated with kinase (1.25 nM) for 10 min, following which a mixture of ATP (10 μM) (#A1852, Sigma, St-Louis, Mo.) and fluorescent-PolyGT substrate (200 nM) (#PV3610, Invitrogen, Life Technologies Grand Island, N.Y.) was added and incubated in dark at room temperature for 1H. After 1H, 10 μL stop solution containing Terbium labeled antibody (4 nM) (#PV3529, Invitrogen, Life Technologies Grand Island, N.Y.) and EDTA (#E5134, Sigma, St-Louis, Mo.) (20 mM) in TR-FRET dilution buffer (#PV3574, Invitrogen, Life Technologies Grand Island, N.Y.) was added. Readings were taken in a Synergy Neo Plate reader (BioTek, Winooski) at single excitation of 340 nm and Dual emission at 495 nm and 520 nm respectively.
The following equations were used for LanthaScreen Eu Kinase Binding Assay Data Analysis. Percent inhibition (100-% activity) was fitted to the “four-parameter logistic model” in XLfit for determination of IC50 values.

[2] = molecular target: T2, CDK4 (Homo sapiens, UniProt P11802); test: In vitro kinase inhibition IC50, luminescence (ADP Glo), retinoblastoma substrate; type: biochemical; conditions: read-out: CDK4/D1 IC50
T2 construct: purchased Invitrogen PR8064A
Method in brief: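 CDK4 enzyme (5 nM, Invitrogen) was combined with test compound and a mix of retinoblastoma substrate (1 μM) plus ATP (25 μM) in kinase buffer, 30 μL/well in 96-well half area white plates. After 2H at room temperature, ADP Glo reagent stopped the reaction for 45 min, then detection reagent was added and luminescence was read.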

[3] = molecular target: T3, CDK6 (Homo sapiens, UniProt Q00534); test: as above; type: biochemical; conditions: read-out: CDK6/D1 IC50
T3 construct: purchased Invitrogen PR8422B
Method in brief: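 Recombinant CDK6 (5 nM) with retinoblastoma substrate (1 μM) and 25 μM ATP, compound at final 0.1–200 nM, incubated 2 h at room temperature. ADP formed detected by ADP-Glo luminescence. IC50 from four-parameter logistic fit of percent inhibition.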

[4] = molecular target: T4, PI3Kδ kinase (Homo sapiens, UniProt O00329); test: PI3Kδ kinase assay (ADP-Glo, Reaction Biology); type: biochemical
T4 construct: purchased Reaction Biology Corporation (assay service)
Method: IC50 values of compounds against the PI3Kδ kinase were determined by an assay performed by Reaction Biology Corporation (Malvern, Pa.). Briefly, this assay was conducted in buffer (Tris-HCl 40 mM (pH7.5), Orthovanadate 3 mM, MgCl2 20 mM, DTT 2 mM, CHAPS 0.05%, DMSO 1%). PI3Kδ kinase was added to the reaction solution and mixed gently. The test compounds in 100% DMSO (at specific solutions) were mixed with the kinase reaction mixture to achieve the final compounds at pre-defined concentrations (e.g., range −0.5 nM to 100 μM) by Acoustic technology (Echo550; nanoliter range). After incubating for 10 min at room temp, ATP was added into the reaction mixture to initiate the reaction followed by a 30-min incubation at 30° C. After quenching the reaction with ADP-Glo reagent, the plates were incubated for 40 min. The Detection Mixture was added, and the plate was incubated for an additional 30 min. At the end of incubation, luminescence was measured. For data analysis, the luminescence was converted into μM ADP production based on ADP standard curves. The nonlinear regression to obtain the standard curve and IC50 values was performed using GraphPad Prism (GraphPad Software, Inc., San Diego, Calif.).

[5] = test system: MCF-7 breast adenocarcinoma cells; test: Cancer cell proliferation assay, single agent (cell viability); type: cell-based; conditions: Homo sapiens, MCF7, Table 4; Rb positive; treatment 144 Hr with medium change at 72 Hr; Cell Titer-Glo or resazurin
Method in brief: (§1)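 Cells seeded day 1, then exposed on day 2 to 7–9 compound concentrations (e.g. 1.1 nM–10 μM); BT-549 for 24 h, MCF-7 and DU4475 for 144 h with medium change at 72 h. Viability by CellTiter-Glo or resazurin; IC50 from variable-slope sigmoidal fit.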

[6] = test system: DU4475 breast carcinoma cells; test: as above; type: cell-based; conditions: Homo sapiens, DU-4475; Table 4; Rb negative; treatment 144 Hr with medium change at 72 Hr; Cell Titer-Glo or resazurin
Method in brief: as §1

T3 sequence (Q00534 whole entry): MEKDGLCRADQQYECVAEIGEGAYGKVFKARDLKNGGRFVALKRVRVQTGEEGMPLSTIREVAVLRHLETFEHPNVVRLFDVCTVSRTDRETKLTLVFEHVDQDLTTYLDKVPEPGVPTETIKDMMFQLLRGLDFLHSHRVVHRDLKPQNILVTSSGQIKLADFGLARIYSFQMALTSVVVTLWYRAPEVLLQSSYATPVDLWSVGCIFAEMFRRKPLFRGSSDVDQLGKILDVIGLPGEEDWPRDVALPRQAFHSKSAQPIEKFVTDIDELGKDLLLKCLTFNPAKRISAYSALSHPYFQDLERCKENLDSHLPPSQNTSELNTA
T3 sequence (P24385 whole entry partner): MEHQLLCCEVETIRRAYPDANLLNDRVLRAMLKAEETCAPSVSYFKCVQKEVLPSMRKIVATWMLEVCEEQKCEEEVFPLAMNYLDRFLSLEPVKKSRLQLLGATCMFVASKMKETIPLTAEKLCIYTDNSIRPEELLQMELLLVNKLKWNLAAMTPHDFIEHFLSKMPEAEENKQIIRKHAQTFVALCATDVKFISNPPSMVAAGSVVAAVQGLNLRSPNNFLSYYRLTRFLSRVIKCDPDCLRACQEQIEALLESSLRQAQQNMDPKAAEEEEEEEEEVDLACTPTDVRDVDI
T1 sequence (P07333 20-972): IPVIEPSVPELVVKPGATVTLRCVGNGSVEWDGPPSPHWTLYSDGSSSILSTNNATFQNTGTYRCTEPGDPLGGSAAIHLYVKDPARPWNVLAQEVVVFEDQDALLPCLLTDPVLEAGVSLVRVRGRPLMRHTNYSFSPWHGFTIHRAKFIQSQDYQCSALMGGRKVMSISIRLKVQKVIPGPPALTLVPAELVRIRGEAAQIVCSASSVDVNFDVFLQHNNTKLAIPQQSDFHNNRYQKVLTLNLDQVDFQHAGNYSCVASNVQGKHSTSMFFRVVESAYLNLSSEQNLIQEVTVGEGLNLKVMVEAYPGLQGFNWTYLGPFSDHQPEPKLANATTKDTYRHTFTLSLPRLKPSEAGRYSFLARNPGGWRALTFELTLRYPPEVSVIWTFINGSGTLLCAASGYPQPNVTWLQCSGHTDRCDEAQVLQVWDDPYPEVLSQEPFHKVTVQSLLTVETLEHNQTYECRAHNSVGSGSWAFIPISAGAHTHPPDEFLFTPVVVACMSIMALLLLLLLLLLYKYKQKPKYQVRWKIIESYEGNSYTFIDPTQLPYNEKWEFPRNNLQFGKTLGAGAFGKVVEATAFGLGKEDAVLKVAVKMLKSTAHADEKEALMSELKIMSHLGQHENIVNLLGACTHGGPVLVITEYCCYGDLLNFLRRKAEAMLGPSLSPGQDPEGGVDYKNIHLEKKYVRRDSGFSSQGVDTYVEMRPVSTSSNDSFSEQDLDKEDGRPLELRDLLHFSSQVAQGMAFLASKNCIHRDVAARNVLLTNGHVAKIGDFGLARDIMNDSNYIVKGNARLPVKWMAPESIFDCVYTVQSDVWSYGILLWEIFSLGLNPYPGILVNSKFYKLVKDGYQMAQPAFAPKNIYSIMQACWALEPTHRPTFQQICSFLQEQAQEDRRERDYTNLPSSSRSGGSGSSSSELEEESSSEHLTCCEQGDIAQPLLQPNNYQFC
T4 sequence (O00329 whole entry): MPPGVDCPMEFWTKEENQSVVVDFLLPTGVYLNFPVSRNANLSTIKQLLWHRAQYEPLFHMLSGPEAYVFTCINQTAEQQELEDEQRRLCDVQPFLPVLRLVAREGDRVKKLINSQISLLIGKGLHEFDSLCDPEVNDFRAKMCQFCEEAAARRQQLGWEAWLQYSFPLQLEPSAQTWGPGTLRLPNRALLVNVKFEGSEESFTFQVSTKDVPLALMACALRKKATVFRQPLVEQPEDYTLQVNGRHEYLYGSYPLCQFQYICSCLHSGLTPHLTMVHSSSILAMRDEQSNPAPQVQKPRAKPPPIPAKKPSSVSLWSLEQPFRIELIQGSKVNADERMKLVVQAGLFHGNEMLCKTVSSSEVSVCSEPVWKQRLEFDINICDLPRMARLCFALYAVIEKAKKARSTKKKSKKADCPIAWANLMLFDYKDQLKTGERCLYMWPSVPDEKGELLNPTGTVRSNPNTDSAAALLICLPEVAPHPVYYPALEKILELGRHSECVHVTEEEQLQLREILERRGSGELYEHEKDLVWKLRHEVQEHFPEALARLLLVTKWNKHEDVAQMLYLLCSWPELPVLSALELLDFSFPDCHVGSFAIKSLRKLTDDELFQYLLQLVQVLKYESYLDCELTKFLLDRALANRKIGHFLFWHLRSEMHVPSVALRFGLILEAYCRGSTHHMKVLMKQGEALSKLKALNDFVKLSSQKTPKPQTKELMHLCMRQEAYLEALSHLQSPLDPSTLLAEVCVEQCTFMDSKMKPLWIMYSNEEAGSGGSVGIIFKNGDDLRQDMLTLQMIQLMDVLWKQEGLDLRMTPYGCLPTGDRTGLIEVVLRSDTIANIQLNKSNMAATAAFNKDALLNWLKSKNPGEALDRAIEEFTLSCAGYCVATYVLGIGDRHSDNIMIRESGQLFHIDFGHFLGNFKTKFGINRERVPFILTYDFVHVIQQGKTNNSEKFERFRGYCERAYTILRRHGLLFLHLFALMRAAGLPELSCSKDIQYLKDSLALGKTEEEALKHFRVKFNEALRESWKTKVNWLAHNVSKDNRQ
T4 sequence (P27986 whole entry partner): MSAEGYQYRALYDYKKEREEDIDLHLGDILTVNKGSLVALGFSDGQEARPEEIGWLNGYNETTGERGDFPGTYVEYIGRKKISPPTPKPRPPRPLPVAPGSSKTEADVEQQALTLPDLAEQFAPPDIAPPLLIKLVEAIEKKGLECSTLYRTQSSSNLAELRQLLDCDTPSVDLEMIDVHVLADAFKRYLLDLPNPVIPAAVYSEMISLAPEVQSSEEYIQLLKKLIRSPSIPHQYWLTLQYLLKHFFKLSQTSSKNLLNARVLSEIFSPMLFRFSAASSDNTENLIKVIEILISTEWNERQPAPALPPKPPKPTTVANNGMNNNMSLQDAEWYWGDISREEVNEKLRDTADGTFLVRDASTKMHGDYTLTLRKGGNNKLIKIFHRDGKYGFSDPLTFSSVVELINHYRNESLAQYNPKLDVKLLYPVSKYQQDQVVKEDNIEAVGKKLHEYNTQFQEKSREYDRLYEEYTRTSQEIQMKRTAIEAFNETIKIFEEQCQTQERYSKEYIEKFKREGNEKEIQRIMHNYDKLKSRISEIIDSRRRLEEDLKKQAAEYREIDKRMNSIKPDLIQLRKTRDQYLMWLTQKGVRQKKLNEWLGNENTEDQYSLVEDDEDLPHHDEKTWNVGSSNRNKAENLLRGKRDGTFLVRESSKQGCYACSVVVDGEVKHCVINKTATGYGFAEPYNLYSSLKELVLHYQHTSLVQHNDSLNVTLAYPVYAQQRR
T2 sequence (P11802 whole entry): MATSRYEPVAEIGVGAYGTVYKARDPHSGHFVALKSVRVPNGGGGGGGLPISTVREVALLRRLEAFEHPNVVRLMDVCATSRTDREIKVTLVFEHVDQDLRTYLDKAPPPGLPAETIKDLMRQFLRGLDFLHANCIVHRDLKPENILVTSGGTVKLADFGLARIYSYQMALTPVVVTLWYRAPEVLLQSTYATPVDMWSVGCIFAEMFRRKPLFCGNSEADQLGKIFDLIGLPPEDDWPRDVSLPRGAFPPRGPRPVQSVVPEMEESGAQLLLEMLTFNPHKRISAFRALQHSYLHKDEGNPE
T2 sequence (P24385 whole entry partner): as the sequence (P24385 whole entry partner) above

Compound	IC50 [1] [µM]	IC50 [2] [µM]	IC50 [3] [µM]	IC50 [4] [µM]	IC50 [5] [µM]	IC50 [6] [µM]
CN(C)CC1Cc2ccc(Nc3ncc4cc(C#N)c(=O)n(C5CCCC5)c4n3)cc2C(=O)N1 (stereo not drawn) [Compound No. 22, 8-cyclopentyl-2-((3-((dimethylamino)methyl)-1-oxo-1,2,3,4-tetrahydroisoquinolin-7-yl)amino)-7-oxo-7,8-dihydropyrido[2,3-d]pyrimidine-6-carbonitrile]	< 0.001	> 0.2	0.065	0.043	1.02	
CN1CCN(c2ccc(Nc3ncc4cc(C#N)c(=O)n(Cc5ccccc5)c4n3)cc2)CC1 [Compound No. 32, 8-benzyl-2-((4-(4-methylpiperazin-1-yl)phenyl)amino)-7-oxo-7,8-dihydropyrido[2,3-d]pyrimidine-6-carbonitrile]	0.0035	0.001	0.007	0.251	2.01	
CC(c1ccccc1)n1c(=O)c(C#N)cc2cnc(Nc3ccc(N4CCN(C)CC4)cc3)nc21 (stereo not drawn) [Compound No. 35, 2-((4-(4-methylpiperazin-1-yl)phenyl)amino)-7-oxo-8-(1-phenylethyl)-7,8-dihydropyrido[2,3-d]pyrimidine-6-carbonitrile]	0.007	> 0.2	0.091	0.738	3.88	
CN1CCN(c2ccc(Nc3ncc4cc(C#N)c(=O)n(C5CCCC5)c4n3)cc2F)CC1 [Compound No. 36, 8-cyclopentyl-2-((3-fluoro-4-(4-methylpiperazin-1-yl)phenyl)amino)-7-oxo-7,8-dihydropyrido[2,3-d]pyrimidine-6-carbonitrile]	0.0065	0.001	0.001	1.03	0.315	
N#Cc1cc2cnc(Nc3ccc(C4CCNCC4)cc3)nc2n(C2CCCC2)c1=O [Compound No. 37, 8-cyclopentyl-7-oxo-2-((4-(piperidin-4-yl)phenyl)amino)-7,8-dihydropyrido[2,3-d]pyrimidine-6-carbonitrile]	0.0058	0.0065	0.0025	0.064	0.353	2.23
CN1CCc2cc(Nc3ncc4cc(C#N)c(=O)n(C5CCCC5)c4n3)ccc2C1 [Compound No. 38, 8-cyclopentyl-2-((2-methyl-1,2,3,4-tetrahydroisoquinolin-6-yl)amino)-7-oxo-7,8-dihydropyrido[2,3-d]pyrimidine-6-carbonitrile]	0.0055	0.0015	0.001	0.384	0.452	
CCN(CC)CCOc1ccc(Nc2ncc3cc(C#N)c(=O)n(C4CCCC4)c3n2)cc1 [Compound No. 41, 8-cyclopentyl-2-((4-(2-(diethylamino)ethoxy)phenyl)amino)-7-oxo-7,8-dihydropyrido[2,3-d]pyrimidine-6-carbonitrile]	< 0.001	0.0055	0.001	0.405	0.164	
CC(C)N1CCc2cc(Nc3ncc4cc(C#N)c(=O)n(C5CCCC5)c4n3)ccc2C1 [Compound No. 45, 8-cyclopentyl-2-((2-isopropyl-1,2,3,4-tetrahydroisoquinolin-6-yl)amino)-7-oxo-7,8-dihydropyrido[2,3-d]pyrimidine-6-carbonitrile]	0.002	0.0045	0.019	0.49	0.428	
CN1CCC(c2ccc(Nc3ncc4cc(C#N)c(=O)n(C5CCCC5)c4n3)cc2F)CC1 [Compound No. 46, 8-cyclopentyl-2-((3-fluoro-4-(1-methylpiperidin-4-yl)phenyl)amino)-7-oxo-7,8-dihydropyrido[2,3-d]pyrimidine-6-carbonitrile]	0.0025	0.015	0.005	0.658	0.275	

Results, then the molecule that gave them:

IC50 [1] [µM]	IC50 [2] [µM]	IC50 [3] [µM]	IC50 [4] [µM]	IC50 [5] [µM]	IC50 [6] [µM]	Compound
< 0.001	0.001	0.001	0.31	0.09	1.64	CN1CCN(c2ccc(Nc3ncc4cc(C#N)c(=O)n(C5CCCC5)c4n3)cc2CO)CC1 [Compound No. 10, 8-cyclopentyl-2-((3-(hydroxymethyl)-4-(4-methylpiperazin-1-yl)phenyl)amino)-7-oxo-7,8-dihydropyrido[2,3-d]pyrimidine-6-carbonitrile]
0.0025	0.011	0.002	1.01	0.238		CN(C)Cc1c[nH]c2cc(Nc3ncc4cc(C#N)c(=O)n(C5CCCC5)c4n3)ccc12 [Compound No. 21, 8-cyclopentyl-2-((3-((dimethylamino)methyl)-1H-indol-6-yl)amino)-7-oxo-7,8-dihydropyrido[2,3-d]pyrimidine-6-carbonitrile]
0.0052	0.0065	0.009	1.23	0.315		CN1CCc2ccc(Nc3ncc4cc(C#N)c(=O)n(C5CCCC5)c4n3)cc2C1 [Compound No. 34, 8-cyclopentyl-2-((2-methyl-1,2,3,4-tetrahydroisoquinolin-7-yl)amino)-7-oxo-7,8-dihydropyrido[2,3-d]pyrimidine-6-carbonitrile]
0.004	0.057	0.012	0.651	0.713		N#Cc1cc2cnc(Nc3ccc(N4CCNCC4)cc3)nc2n(C2CCc3ccccc32)c1=O (stereo not drawn) [Compound No. 42, 8-(2,3-dihydro-1H-inden-1-yl)-7-oxo-2-((4-(piperazin-1-yl)phenyl)amino)-7,8-dihydropyrido[2,3-d]pyrimidine-6-carbonitrile]
0.0015	0.005	0.003	0.18	0.18		N#Cc1cc2cnc(Nc3ccc(C4CCNCC4)c(F)c3)nc2n(C2CCCC2)c1=O [Compound No. 43, 8-cyclopentyl-2-((3-fluoro-4-(piperidin-4-yl)phenyl)amino)-7-oxo-7,8-dihydropyrido[2,3-d]pyrimidine-6-carbonitrile]
0.0025	0.002	0.001	0.095	0.095		CN(C)C1CCN(c2ccc(Nc3ncc4cc(C#N)c(=O)n(C5CCCC5)c4n3)cc2F)CC1 [Compound No. 44, 8-cyclopentyl-2-((4-(4-(dimethylamino)piperidin-1-yl)-3-fluorophenyl)amino)-7-oxo-7,8-dihydropyrido[2,3-d]pyrimidine-6-carbonitrile]
0.0025	0.0095	0.004	0.345	0.345		CN(C)C1Cc2ccc(Nc3ncc4cc(C#N)c(=O)n(C5CCCC5)c4n3)cc2C1 (stereo not drawn) [Compound No. 47, 8-cyclopentyl-2-((2-(dimethylamino)-2,3-dihydro-1H-inden-5-yl)amino)-7-oxo-7,8-dihydropyrido[2,3-d]pyrimidine-6-carbonitrile]
0.001	0.0091	0.004	0.0043	4.44		N#Cc1cc2cnc(Nc3ccc(N4CCC(O)CC4)c(F)c3)nc2n(C2CCCC2)c1=O [Compound No. 49, 8-cyclopentyl-2-((3-fluoro-4-(4-hydroxypiperidin-1-yl)phenyl)amino)-7-oxo-7,8-dihydropyrido[2,3-d]pyrimidine-6-carbonitrile]

Reference: patent US20220273659A1, “HETEROCYCLIC COMPOUNDS AS KINASE INHIBITORS” (NUVATION BIO INC., priority 2019, published 2022)
